Measured values reported in ChEMBL document CHEMBL4229416, “Identification of PKMYT1 inhibitors by screening the GSK published protein kinase inhibitor set I and II” (Bioorg Med Chem, 2018).
Calls of active or inactive are those of the source. The calls are words filed in the database; no cut-off is given here.

Experiments:
[1] = molecular target: T1, Membrane-associated tyrosine- and threonine-specific cdc2-inhibitory kinase (Homo sapiens, UniProt Q99640); test: Inhibition of human full length PKMYT1 expressed in HEK293 cells using EFS (247 to 259 residues) as substrate after 1 hr by fluorescence polarization immunoasay
T1 sequence (Q99640 whole entry): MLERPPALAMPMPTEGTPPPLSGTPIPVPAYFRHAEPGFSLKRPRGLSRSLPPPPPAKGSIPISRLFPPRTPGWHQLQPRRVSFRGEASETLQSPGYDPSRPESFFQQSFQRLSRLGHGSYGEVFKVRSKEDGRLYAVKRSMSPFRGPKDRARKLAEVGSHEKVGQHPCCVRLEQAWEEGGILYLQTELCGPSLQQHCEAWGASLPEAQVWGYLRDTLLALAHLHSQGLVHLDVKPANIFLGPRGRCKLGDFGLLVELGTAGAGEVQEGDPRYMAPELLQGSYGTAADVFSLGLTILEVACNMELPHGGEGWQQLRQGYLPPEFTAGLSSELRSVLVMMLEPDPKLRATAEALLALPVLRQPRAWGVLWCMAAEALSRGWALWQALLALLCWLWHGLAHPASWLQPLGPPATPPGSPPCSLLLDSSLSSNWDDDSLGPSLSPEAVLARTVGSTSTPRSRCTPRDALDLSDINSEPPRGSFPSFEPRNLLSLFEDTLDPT

[2] = molecular target: T2, Membrane-associated tyrosine- and threonine-specific cdc2-inhibitory kinase (Homo sapiens) (UniProt Q99640); test: Inhibition of human full length PKMYT1 expressed in HEK293 cells assessed as decrease in GST-tagged Cdk1 phosphorylation at tyrosine 15 at 5 to 20 uM after 1 hr by Western blot method relative to control; format: cell-based
T2 sequence (whole entry): T1 sequence (Q99640 whole entry)

[3] = molecular target: T1, Membrane-associated tyrosine- and threonine-specific cdc2-inhibitory kinase; test: Inhibition of N-[3',6'-dihydroxy-3-oxo-3H-spiro(2-benzofuran-1,9'-xanthen)-5-yl]-N'-[2-(4-{4-[N-(2-chloro-6-methylphenyl)-5-carboxamido]-thiazol-2-yl})-amino-2-methyl-pyrimid-6-yl)piperazinyl]-ethyl]thiourea binding to human PKMYT1 kinase doamin expressed in Escherichia coli BL21 after 120 mins by fluorescence polarization asay
[4] = molecular target: T2, Membrane-associated tyrosine- and threonine-specific cdc2-inhibitory kinase (Homo sapiens); test: Inhibition of PKMYT1 in human HT29 cells assessed as decrease in Cdk1 phosphorylation at tyrosine 15 at 4 uM after 24 hrs by Western blot method; format: cell-based

Compound	IC50 [1]	Ki [1]	inhibition [2]	IC50 [3]	Ki [3]	inhibition [4]
O=C(Nc1cccc(-c2nn3ncccc3c2-c2ccnc(Nc3cccnc3)n2)c1)c1c(F)cccc1F	7560 nM	720 nM	Active	18900 nM	14700 nM	–
CNC(=O)c1ccccc1Nc1nc(Nc2ccc(N3CCOCC3)cc2)ncc1Cl	270 nM	25.7 nM	Active	352 nM	180 nM	Active
Cc1cc(O)cc(C)c1/C=C/c1cncc(C(N)=O)c1 [GW435821X]	14500 nM	1380 nM	Active	876 nM	522 nM	–
Cc1cc(Nc2ncc3cc(-c4c(Cl)cccc4Cl)c(=O)n(C)c3n2)ccc1F	109 nM	10.4 nM	–	2700 nM	13500 nM	–
Cn1c(=O)c(-c2c(Cl)cccc2Cl)cc2cnc(Nc3ccc(N4CCOCC4)cc3)nc21	24 nM	2.3 nM	–	55 nM	8.1 nM	–

The next lines start with the values.

IC50 [1]	Ki [1]	inhibition [2]	IC50 [3]	Ki [3]	inhibition [4]	Compound
–	–	Active	–	–	–	NC(=O)c1cccc(Nc2nccc(Nc3cccc4[nH]ncc34)n2)c1 [GW782612X]
58000 nM	5520 nM	Active	11400 nM	5810 nM	–	NC(=O)c1cc(-c2ccncc2)cc(-c2ccccc2)c1N [GSK-625137A]
19600 nM	1870 nM	–	55000 nM	26200 nM	–	COc1cc2ncnc(Nc3cccc(Cl)c3)c2cc1OC [TYRPHOSTIN AG-1478]
–	–	Active	–	–	Active	COc1cc(Nc2ncc(C#N)c(Nc3ccccc3C(N)=O)n2)ccc1N1CCN(C)CC1
543 nM	51.7 nM	Active	9430 nM	6150 nM	Active	Cc1cc(O)cc(Nc2ccnc3cc(-c4ccccn4)ccc23)c1
115 nM	10.9 nM	Active	151 nM	104 nM	Active	CNC(=O)c1ccccc1Nc1nc(Nc2cccc(CS(C)(=O)=O)c2)ncc1C
706 nM	67.2 nM	Active	332 nM	201 nM	–	Oc1cccc(Nc2ccnc3cc(-c4ccncc4)ccc23)c1
8 nM	0.8 nM	–	31.1 nM	2 nM	–	CCN(CC)CCOc1ccc(Nc2ncc3cc(-c4c(Cl)cccc4Cl)c(=O)n(C)c3n2)cc1 [PD-0166285]
